Laboratory results published in PMC12974487, “Inhibition of FicD-mediated AMPylation and deAMPylation by isoprenoid diphosphates” (Proceedings of the National Academy of Sciences of the …, 2026).

Target: T1, FicD^R371S (Homo sapiens, UniProt Q9BVA6, R371S)
T1 construct: Wild-type FicD (residues 105-458) and all mutants were expressed as N-terminal 6xHis-Sumo fusions; 6xHis-Sumo (N, cleaved yes); made in house; host or cells: Rosetta(DE3) E. coli
T1 sequence (Q9BVA6 105-458 R371S): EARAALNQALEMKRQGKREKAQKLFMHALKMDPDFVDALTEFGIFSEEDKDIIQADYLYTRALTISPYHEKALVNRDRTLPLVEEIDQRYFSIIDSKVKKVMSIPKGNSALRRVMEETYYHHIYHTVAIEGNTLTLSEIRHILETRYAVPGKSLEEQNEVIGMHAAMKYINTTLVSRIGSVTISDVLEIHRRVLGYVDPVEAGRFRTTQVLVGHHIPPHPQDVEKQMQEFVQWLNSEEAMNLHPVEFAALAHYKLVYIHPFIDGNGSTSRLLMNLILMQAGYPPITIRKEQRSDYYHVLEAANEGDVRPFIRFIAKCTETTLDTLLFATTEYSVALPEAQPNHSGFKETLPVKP
Test: AMPylation of Δ26hBiP^T229A by pathogenic variant FicD^R371S
Assay type: biochemical
Conditions: indicated concentrations of FPP
Description: Fig. 5. Crystal structure of FPP inhibitor bound to FicD active site. […] FPP (cyan stick) and Mg^2+ (cyan sphere) in the pocket of FicD shown as APBS electrostatic surface with positive areas in blue, negative in red, and neutral in white (contour level: ±5 kBT/e) (Right). […] (C–E) AMPylation assays of Δ26hBiP^T229A in the presence of the indicated concentration of FPP using the pathogenic human variants (C) FicD^R371S, (D) FicD^R374H and (E) FicD^R374C. AMPylated BiP and Fic were quantified by immunodetection, and total BiP was quantified by CBB. […]
Isothermal Titration Calorimetry
Proteins were dialyzed against 25mM HEPES pH 7.4/100mM KCl/10% glycerol prior to titration. […]
MgCl2 was added to […]
proteins to a final concentration of 4mM. ITC experiments were performed in a Micro-Cal PEAQ-ITC (Malvern Panalytical, Worcestershire, UK) calorimeter with a stirred 206.2 μL reaction cell held at 20 °C. 250μM FPP was titrated into 25uM Δ104hFicL258D with 750rpm stirring. The first injection was 0.5 μL, followed by twenty 1.9 μL injections. […]
Thermogram and binding figures were plotted in
For AMPylation assays with FicD and BiP, Δ104FicDWT and Δ26hBiPT229A were combined at a ratio of 1:80 in buffer containing 25mM HEPES pH 7.4, 100mM KCl, 5mM MgCl2, 500μM ATP, 1mM DTT, and small molecule where indicated. Assays with Δ104FicDWT were incubated for 1 hour. […]

For CC(C)=CCC/C(C)=C/CC/C(C)=C/COP(=O)(O)OP(=O)(O)O [FPP, farnesyl-pyrophosphate], the “FPP inhibition of FicD^R371S AMPylation activity” value was “total loss of FPP inhibition”.
